Data from patent US20210228545A1, “METHODS OF TREATING CONDITIONS RELATED TO THE S1P1 RECEPTOR” (Arena Pharmaceuticals, Inc., priority 2018, published 2021).

Assays:
[1] = biological target: CYP1A2 (Homo sapiens, UniProt P05177); test: Direct inhibition of CYP activity in human liver microsomes; assay type: in vitro ADME; conditions: up to 10 μM
Description: (§1) Known metabolism-dependent and/or direct inhibitors of CYP and UGT enzymes were included as positive controls, as applicable.

[2] = biological target: T1, CYP2B6 (Homo sapiens, UniProt P20813); test: as above; assay type: in vitro ADME; conditions: up to 10 μM
T1 construct: human liver microsomes from a pool of 200 individuals; from tissue; host or cells: human liver microsomes, pool of 200 individuals
Description: as §1

[3] = biological target: T2, CYP2C19 (Homo sapiens, UniProt P33261); test: as above; assay type: in vitro ADME; conditions: up to 10 μM
T2 construct: human liver microsomes from a pool of 200 individuals; from tissue; host or cells: human liver microsomes, pool of 200 individuals
Description: as §1

[4] = biological target: T3, CYP2C8 (Homo sapiens, UniProt P10632); test: as above; assay type: in vitro ADME
T3 construct: human liver microsomes from a pool of 200 individuals; from tissue; host or cells: human liver microsomes, pool of 200 individuals
T3 sequence (P10632 1-490): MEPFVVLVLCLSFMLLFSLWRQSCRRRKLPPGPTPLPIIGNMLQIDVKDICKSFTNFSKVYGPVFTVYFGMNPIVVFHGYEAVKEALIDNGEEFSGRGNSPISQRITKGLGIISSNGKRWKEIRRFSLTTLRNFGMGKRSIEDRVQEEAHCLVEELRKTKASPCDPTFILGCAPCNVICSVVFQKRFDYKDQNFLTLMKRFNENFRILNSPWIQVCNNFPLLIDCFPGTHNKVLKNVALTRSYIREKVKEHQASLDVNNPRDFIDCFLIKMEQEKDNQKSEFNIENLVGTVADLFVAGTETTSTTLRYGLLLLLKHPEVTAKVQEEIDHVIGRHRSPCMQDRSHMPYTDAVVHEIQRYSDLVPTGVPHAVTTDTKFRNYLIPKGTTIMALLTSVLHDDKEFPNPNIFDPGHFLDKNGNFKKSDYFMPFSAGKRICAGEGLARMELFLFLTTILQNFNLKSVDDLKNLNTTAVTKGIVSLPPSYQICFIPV
Description: as §1

[5] = biological target: T4, CYP2C9 (Homo sapiens, UniProt P11712); test: as above; assay type: in vitro ADME; conditions: up to 10 μM
T4 construct: human liver microsomes from a pool of 200 individuals; from tissue; host or cells: human liver microsomes, pool of 200 individuals
Description: as §1

[6] = biological target: T5, CYP2D6 (Homo sapiens, UniProt P10635); test: as above; assay type: in vitro ADME; conditions: up to 10 μM
T5 construct: human liver microsomes from a pool of 200 individuals; from tissue; host or cells: human liver microsomes, pool of 200 individuals
Description: as §1

[7] = test system: CYP3A4/5; test: as above; assay type: in vitro ADME; conditions: up to 10 μM
Description: as §1

[8] = biological target: T6, BCRP (Homo sapiens, UniProt Q9UNQ0); test: Transporter inhibition, MDCKII-BCRP cells; assay type: in vitro ADME
T6 sequence (Q9UNQ0 1-655): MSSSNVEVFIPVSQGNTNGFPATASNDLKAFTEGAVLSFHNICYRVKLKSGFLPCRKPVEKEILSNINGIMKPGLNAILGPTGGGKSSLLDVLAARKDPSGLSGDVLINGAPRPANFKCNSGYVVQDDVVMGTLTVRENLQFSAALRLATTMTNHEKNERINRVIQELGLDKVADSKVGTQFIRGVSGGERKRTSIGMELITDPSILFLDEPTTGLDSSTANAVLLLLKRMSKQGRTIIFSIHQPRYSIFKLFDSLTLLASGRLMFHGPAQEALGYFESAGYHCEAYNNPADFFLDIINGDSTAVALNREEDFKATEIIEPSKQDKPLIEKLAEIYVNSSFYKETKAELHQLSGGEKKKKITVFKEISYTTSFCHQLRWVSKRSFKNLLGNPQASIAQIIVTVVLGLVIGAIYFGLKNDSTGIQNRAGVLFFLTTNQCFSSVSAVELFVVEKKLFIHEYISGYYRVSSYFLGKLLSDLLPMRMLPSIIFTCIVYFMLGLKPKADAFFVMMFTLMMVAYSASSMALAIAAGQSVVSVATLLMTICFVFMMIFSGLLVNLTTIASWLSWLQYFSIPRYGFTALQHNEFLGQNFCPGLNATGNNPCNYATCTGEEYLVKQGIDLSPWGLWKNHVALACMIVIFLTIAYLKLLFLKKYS

[9] = biological target: T7, OCT1 (Homo sapiens, UniProt O15245); test: Transporter substrate evaluation, HEK293 cells; assay type: in vitro ADME; conditions: 1 and 10 μM
T7 construct: expressed in transfected cells; host or cells: HEK293
T7 sequence (O15245 1-554): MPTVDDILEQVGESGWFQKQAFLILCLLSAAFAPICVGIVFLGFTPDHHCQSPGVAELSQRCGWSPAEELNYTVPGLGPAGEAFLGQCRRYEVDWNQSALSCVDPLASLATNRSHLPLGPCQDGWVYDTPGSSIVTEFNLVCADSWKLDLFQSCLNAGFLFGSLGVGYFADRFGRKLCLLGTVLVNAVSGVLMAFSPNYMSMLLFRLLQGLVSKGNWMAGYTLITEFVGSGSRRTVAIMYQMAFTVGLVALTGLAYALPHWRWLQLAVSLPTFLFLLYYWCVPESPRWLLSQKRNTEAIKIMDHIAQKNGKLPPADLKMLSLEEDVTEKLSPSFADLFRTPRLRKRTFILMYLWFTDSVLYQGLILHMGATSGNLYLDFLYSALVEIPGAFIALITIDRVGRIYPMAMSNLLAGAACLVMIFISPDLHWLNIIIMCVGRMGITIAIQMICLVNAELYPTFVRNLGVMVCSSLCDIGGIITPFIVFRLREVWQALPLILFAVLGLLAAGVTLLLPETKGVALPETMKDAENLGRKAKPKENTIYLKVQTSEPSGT

[10] = In vitro metabolism studies and human mass balance clinical study; assay type: in vivo; conditions: oxidative (CYP2C8, CYP2C9) and conjugation (UGT1A7, minor UGT1A1, UGT1A4) pathways
Description: Compound 1 is eliminated from the systemic circulation mainly due to metabolism and biliary/fecal excretion.

[11] = in vivo

T2 sequence (P33261 whole entry): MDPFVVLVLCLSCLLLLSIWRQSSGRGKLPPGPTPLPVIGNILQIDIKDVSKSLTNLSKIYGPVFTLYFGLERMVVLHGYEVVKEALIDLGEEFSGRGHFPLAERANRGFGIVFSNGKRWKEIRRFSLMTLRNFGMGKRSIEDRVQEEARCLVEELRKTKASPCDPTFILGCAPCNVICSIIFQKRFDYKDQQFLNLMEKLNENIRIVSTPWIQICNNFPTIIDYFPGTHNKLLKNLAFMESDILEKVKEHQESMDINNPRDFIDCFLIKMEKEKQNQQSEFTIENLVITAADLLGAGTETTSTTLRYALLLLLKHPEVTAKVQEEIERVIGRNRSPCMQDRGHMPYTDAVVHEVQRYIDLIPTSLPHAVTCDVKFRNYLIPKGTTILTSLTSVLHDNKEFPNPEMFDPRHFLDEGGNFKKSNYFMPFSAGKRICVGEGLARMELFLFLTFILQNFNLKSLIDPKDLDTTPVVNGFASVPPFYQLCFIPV
T5 sequence (P10635 whole entry): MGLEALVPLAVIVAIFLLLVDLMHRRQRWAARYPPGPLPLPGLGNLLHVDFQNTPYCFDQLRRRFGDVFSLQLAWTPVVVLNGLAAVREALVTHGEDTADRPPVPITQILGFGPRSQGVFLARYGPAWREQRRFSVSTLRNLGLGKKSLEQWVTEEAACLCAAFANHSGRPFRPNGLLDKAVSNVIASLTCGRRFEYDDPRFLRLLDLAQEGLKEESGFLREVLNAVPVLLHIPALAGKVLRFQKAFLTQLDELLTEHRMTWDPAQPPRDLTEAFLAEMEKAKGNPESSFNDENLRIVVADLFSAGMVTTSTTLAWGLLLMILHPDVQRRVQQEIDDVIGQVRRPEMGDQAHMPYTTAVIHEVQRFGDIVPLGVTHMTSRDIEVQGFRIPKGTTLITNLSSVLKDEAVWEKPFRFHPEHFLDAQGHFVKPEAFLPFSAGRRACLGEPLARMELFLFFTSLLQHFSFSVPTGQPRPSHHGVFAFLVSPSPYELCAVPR
CYP1A2, sequence (P05177 whole entry): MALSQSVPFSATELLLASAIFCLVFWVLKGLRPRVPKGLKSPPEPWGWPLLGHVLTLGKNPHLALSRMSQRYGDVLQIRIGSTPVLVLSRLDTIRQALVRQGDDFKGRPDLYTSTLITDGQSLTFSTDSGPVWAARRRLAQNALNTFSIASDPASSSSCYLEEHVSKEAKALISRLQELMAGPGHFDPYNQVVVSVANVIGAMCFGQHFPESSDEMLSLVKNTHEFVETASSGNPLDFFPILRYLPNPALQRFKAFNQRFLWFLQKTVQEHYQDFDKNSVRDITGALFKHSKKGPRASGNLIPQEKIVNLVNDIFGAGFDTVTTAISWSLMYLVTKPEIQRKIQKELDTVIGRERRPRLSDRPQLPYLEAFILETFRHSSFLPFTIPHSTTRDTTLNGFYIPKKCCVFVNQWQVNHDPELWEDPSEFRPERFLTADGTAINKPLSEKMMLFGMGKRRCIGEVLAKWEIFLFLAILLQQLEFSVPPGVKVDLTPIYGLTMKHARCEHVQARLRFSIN
T4 sequence (P11712 whole entry): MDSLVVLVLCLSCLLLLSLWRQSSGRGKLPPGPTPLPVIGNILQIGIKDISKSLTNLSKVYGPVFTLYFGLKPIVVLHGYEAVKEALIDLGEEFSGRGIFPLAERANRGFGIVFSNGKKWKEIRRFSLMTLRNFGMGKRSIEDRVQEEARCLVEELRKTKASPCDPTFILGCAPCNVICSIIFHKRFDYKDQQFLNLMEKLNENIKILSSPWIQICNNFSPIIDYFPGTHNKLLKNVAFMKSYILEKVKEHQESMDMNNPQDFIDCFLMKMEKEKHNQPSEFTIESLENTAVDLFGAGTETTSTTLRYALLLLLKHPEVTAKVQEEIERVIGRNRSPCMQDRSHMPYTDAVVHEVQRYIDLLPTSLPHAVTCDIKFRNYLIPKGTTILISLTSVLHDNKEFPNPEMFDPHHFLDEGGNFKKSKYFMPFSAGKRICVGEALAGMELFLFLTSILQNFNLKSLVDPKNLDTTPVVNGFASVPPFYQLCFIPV
T1 sequence (P20813 whole entry): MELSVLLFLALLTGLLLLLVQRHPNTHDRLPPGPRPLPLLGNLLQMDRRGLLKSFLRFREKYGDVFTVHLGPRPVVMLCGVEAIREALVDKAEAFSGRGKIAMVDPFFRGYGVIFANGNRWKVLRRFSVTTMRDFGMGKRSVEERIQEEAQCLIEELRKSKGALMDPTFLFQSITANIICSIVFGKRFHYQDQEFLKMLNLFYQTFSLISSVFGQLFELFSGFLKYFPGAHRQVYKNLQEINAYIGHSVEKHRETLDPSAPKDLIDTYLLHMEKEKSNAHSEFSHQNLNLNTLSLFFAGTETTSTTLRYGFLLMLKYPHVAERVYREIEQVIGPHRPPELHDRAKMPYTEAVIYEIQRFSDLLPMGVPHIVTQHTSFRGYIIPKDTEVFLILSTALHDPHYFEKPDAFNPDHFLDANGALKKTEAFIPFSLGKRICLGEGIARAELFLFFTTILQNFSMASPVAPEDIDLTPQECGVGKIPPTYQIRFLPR

O=C(O)C[C@H]1CCc2c1[nH]c1ccc(OCc3ccc(C4CCCC4)c(C(F)(F)F)c3)cc21 [Compound 1, (R)-2-(7-(4-cyclopentyl-3-(trifluoromethyl)benzyloxy)-1,2,3,4-tetrahydrocyclopenta[b]indol-3-yl)acetic acid]
Direct inhibition of CYP1A2 activity [1]: Little or no direct inhibition | Direct inhibition of CYP2B6 activity [2]: Little or no direct inhibition | Direct inhibition of CYP2C19 activity [3]: Little or no direct inhibition | inhibition at 1 µM [4]: 22% | inhibition at 10 µM [4]: ~100% | Direct inhibition of CYP2C9 activity [5]: Little or no direct inhibition | Direct inhibition of CYP2D6 activity [6]: Little or no direct inhibition | Direct inhibition of CYP3A4/5 activity [7]: Little or no direct inhibition | Reduction of corrected efflux ratio of prazosin (1 μM) across MDCKII-BCRP cells ([8]; 10 and 100 μM, post-assay TEER below acceptance criteria): more than 50% | IC50 ([8]; MDCKII-BCRP cells, prazosin (1 μM), 0.03 to 30 μM): 35.7 µM | Potential substrate of OCT1 ([9]; HEK293 cells): not a substrate of OCT1 and not a substrate and No | Uptake ratio into OCT1-expressing cells ([9]; absence and presence of quinidine (100 μM)): below two | Extent of metabolism (overall) [10]: > 25% | Gender difference in mean plasma concentrations and exposure parameters [11]: only moderately higher in females compared to males
